Results on 2 compounds are retold here after patent US10584159B2, “Renilla based biosensors for monitoring biomolecule localization and trafficking in cells” (The Royal Institution for the Advancement of …, priority 2014, dated 2020).

One experiment concerns Acetylcholine receptors. As to the kind of experiment: PKN-based RhoA activation BRET assay, carbachol stimulation. Format: cell-based. The conditions noted are these: 100 nM Ubo, 100 μM carbachol 70 s. The method, then:
PKN-based RhoA activation assay. For FIGS. 25B-D, HEK293SL cells were grown in DMEM supplemented with 6% fetal bovine serum (FBS) and 20 μg/ml gentamycin, at 37° C. Cells were seeded at a density of 7.5×10^5 cells per 100 mm dishes and were transiently transfected the next day with constructs encoding AT1R (3 μg) along with PKN-crib-RlucII (90 ng) and rGFP-CAAX (480 ng) using calcium phosphate method as described previously. After 24 h, cells were detached and seeded onto poly-ornithine-coated 96-well white plates at a density of 25 000 cells per well in media. The next day, cells were washed once with Tyrode's buffer and left in 80 μl of Tyrode's buffer at 37° C. When indicated, cells were treated with Ubo-Qic 100 nM for 30 min or C3 toxin for 3 μg/ml (in FIG. 25I), 4 hours at 37° C. Cell stimulation and BRET measurements were done at RT. BRET signals were monitored by addition of Coel-400a to a final concentration of 5 μM using a Synergy2 (BioTek®) microplate reader. Filter set was 410±80 nm and 515±30 nm for detecting the RlucII Renilla luciferase (donor) and rGFP (acceptor) light emission. […] BRET was measured at 37° C., using a Tristar Microplate Reader (Berthold Technologies) equipped with BRET400-GFP2/10 filter set (acceptor, 515±20 nm; and donor, 400±70 nm filters). […] BRET was measured at 37° C., using a Tristar Microplate Reader (Berthold Technologies).

The next experiment deals with Gq. As to the kind of experiment: RlucII-tagged Gq translocation to rGFP markers (BRET) with TPαR. Format: cell-based, human. The conditions noted are these: 100 nM Ubo-Qic 20 min.
The next experiment has as its target T1, AT1R (Homo sapiens, UniProt P30556).
T1 sequence (P30556 with tags, fused parts or gaps): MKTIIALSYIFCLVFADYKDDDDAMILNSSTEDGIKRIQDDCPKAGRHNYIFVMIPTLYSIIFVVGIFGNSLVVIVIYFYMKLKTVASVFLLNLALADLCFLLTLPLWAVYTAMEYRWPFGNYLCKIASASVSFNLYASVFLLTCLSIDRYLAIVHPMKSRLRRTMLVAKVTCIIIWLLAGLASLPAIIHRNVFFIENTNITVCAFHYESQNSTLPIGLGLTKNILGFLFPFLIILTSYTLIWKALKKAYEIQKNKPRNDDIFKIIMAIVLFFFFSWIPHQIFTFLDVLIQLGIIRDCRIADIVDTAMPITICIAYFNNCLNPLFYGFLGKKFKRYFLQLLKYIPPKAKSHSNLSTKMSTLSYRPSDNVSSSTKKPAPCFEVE
Kind of experiment: AT1R sorting to rab11 vesicles BRET (AT1R-RlucII/rGFP-rab11). More on the design: signal peptide-Flag-human AT1R (spFlag-AT1R); signal peptide (N); expressed in transfected cells; host or cells: HEK293SL (HEK293 for the screen). Format: cell-based. Here is the method: BRET measurements for FIGS. 1B to 9D, 25D to 25F. The following day of transfection, cells were detached and replated onto poly-ornithine coated white 96-well plate at a density of 25,000 cells per well. The next day, cells were washed once with pre-warmed Tyrode's buffer (140 mM NaCl, 2.7 mM KCl, 1 mM CaCl2, 12 mM NaHCO3, 5.6 mM D-glucose, 0.5 mM MgCl2, 0.37 mM NaH2PO4, 25 mM HEPES, pH 7.4), and then stimulated with either various concentrations of ligands in Tyrode's buffer for the indicated time, or single concentration of ligands for various times at 37° C. For recycling experiment, after stimulating the cells with the ligands for 30 min at 37° C., they were washed either three times with ice-cold Tyrode's buffer or once with Tyrode's buffer/three times with acid (50 mM sodium citrate, pH 4.0)/two times with Tyrode's buffer. All the washing steps were performed on ice. Cells were then further incubated with Tyrode's buffer at 37° C. in a water bath for 45 min. […] Measurements were performed by using Synergy2 (BioTek®) microplate reader with a filter set of 410±80 nm and 515±30 nm for detecting the RlucII Renilla luciferase (donor) and GFP10 or rGFP (acceptor) light emissions, respectively. The BRET signal was determined by calculating the ratio of the light intensity emitted by the GFP10 or rGFP over the light intensity emitted by the RlucII. […]

Starred links: 1 amine or outer side, 2 acyl side, 3 side chain; linkers in the order of their positions; H or OH if unused. Positions of bridges follow the written chain, without caps; N, C: chain ends. Non-standard residues stand in square brackets, D forms with d. Residues, ends and D or L forms follow the SMILES beside them. No end group written: not given here. *: point of attachment. Leu(3R-OH,Nα-propionyl) = CCC(=O)N[C@H](C(=O)*)[C@H](O)C(C)C; X1 = CC(C)[C@@H](O[*:3])[C@H](N[*:1])C(=O)[*:2]; NMeT = CN[C@H](C(=O)O)[C@@H](C)O; dPhLac = O=C(O)[C@H](O)Cc1ccccc1; NMeA = CN[C@@H](C)C(=O)O; NMeDha = C=C(NC)C(=O)O

`C=C1C(=O)N[C@@H](C)C(=O)N(C)[C@@H](C)C(=O)N[C@@H]([C@H](OC(=O)[C@@H](NC(=O)CC)[C@H](O)C(C)C)C(C)C)C(=O)N(C)[C@@H]([C@@H](C)OC)C(=O)O[C@H](C(C)C)[C@H](NC(C)=O)C(=O)O[C@H](Cc2ccccc2)C(=O)N1C` [Ubo-QIC] (Ac-[X1][dPhLac][NMeDha]A[NMeA][X1](Leu(3R-OH,Nα-propionyl))[NMeT](Me); ester 1-C): in the experiment on Acetylcholine receptors, the “effect on CCh-mediated response (Rho sensor)” value is “completely blocked”. In addition, the “U46619 response of Gq translocation to rGFP-CAAX Hras, rGFP-CAAX CCIL and Golgi markers after Gq inhibitor” value in the experiment with Gq is given as “No response is observed”. Further, the “effect on AngII-bound AT1R in Rab11 vesicles” value at AT1R (100 nM Ubo, 100 nM AngII 30 min) is “increased AngII-bound AT1R in Rab 4 and Rab11 vesicles”.
Take “DRVYVHPG [DVG, [Asp^1,Val^5, Gly^8]-AngII]”: the “BRET signal relative to AngII” value at AT1R (100 nM SI, 1 μM DVG) is “overall higher BRET signals”.
